Source: article PMC3414448 (PLoS ONE, 2012)
Values joined by “and” are separate entries in the source; they are usually repeats but may differ in a detail not shown here. Equal entries are not always repeated. Where two headings read alike, the source gives them in different places.

Columns and labels:
[1] = tested on: undifferentiated Caco-2 cells
[2] = tested on: differentiated Caco-2 cells
[3] = tested on: 8-hydroxydeoxyguanosine (8-OHdG)
[4] = tested on: phosphorylated histone variant H2AX (γ-H2AX)
[5] = tested on: 8-hydroxydeoxyguanosine (8-OHdG); remark: listed apart in the source
[6] = tested on: phosphorylated histone variant H2AX (γ-H2AX); remark: listed apart in the source
[7] = tested on: 8-hydroxydeoxyguanosine (8-OHdG); assay: cells; conditions: Homo sapiens, Caco-2, 24 h, read-out: EC50 8-OHdG nuclear staining
[8] = tested on: phosphorylated histone variant H2AX (γ-H2AX); assay: cells; conditions: Homo sapiens, Caco-2, 24 h, read-out: EC50 γ-H2AX nuclear staining

With `CO[C@@]12[C@H](COC(N)=O)C3=C(C(=O)C(C)=C(N)C3=O)N1C[C@@H]1N[C@@H]12` [MMC, mitomycin C] the “Cell Count (%Control)” value (CHO-K1 cells) was 98.56 %Control and 101.70 %Control and 91.11 %Control and the “Cell Count (%Control)” value (A549 cells) was 98.78 %Control and 95.22 %Control and 78.78 %Control.

`OO` [Peroxide, hydrogen peroxide] was tested, and the “concentration at which nuclear area was significantly increased” value [1] was no less than 100 µM, the “cytotoxicity in differentiated cells” value [2] was “Neither rotenone nor peroxide induced cytotoxicity” and the “concentration at which 8-OHdG staining was significantly increased” value [3] was “not statistically significant”. For the same molecule, the EC50 ([3]; read-out: EC50 8-OHdG nuclear staining) was 5500 nM, the “concentration at which γ-H2AX staining was significantly increased” value [4] was 300 µM and the “γ-H2AX staining at non-cytotoxic concentrations” value [4] was “increased γ-H2AX staining at the highest non-cytotoxic concentration (100 µM)”. For the same molecule, the “concentration at which 8-OHdG was significantly increased” value [5] was 100 µM and the “concentration at which γ-H2AX staining was increased” value [6] was 1000 µM.

`C=C(C)[C@H]1Cc2c(ccc3c2O[C@@H]2COc4cc(OC)c(OC)cc4[C@@H]2C3=O)O1` [Rotenone, rotenone] was tested, and the “concentration at which nuclear area was significantly increased” value ([1]; undifferentiated Caco-2, 24 hr, p<0.05) was “all rotenone concentrations”, the “cytotoxicity in differentiated cells” value [2] was “Neither rotenone nor peroxide induced cytotoxicity” and the EC50 [7] was 990 nM. The EC50 [8] was 1100 nM.
